According to patent publication US12109218B2, “Compositions of grapiprant and methods for using the same” (ARATANA THERAPEUTICS, INC., priority 2014, dated 2024):

Key:
[1] = tested on: dogs with naturally occurring osteoarthritis; assay: Dose ranging field study in osteoarthritic dogs, CBPI (Example 6); format: in vivo, dog; conditions: for median decrease from baseline PSS score: placebo 28; for median decrease from baseline PIS score: placebo 39.13; for Pain Interference Score (PIS), % change from Day 0 / Pain Severity Score (PSS), % change from Day 0: Formulation A34 tablets
Protocol: In a masked, multi-centered dose ranging field study, dogs with naturally occurring osteoarthritis were treated with grapiprant at 2 mg/kg once daily (SID), 5 mg/kg once daily, 4 mg/kg twice daily (BID), or placebo twice daily to assess the control of pain and inflammation. Dogs were randomly assigned to one of the four treatment groups and treated orally with Formulation A34 tablets of 20, 60, and 100 mg, or placebo tablets (matched to the 4 mg/kg group). (See above at Example 2, Table 4). The control of pain and inflammation was assessed by the owner using the validated Canine Brief Pain Inventory (CBPI) assessment tool, which consists of a pain severity score (PSS), a Pain Interference Score (PIS), and an Owner Impression of dog's quality of life. CBPI scoring, as well as a veterinarian assessment of osteoarthritis, were conducted at Study Day 0 (baseline) and Days 7, 14, 21, and 28.
In total 476 dogs were screened in the study with 108 screen failures, resulting in […] in the per protocol population.

[2] = tested on: Feline Onychectomy; assay: Feline onychectomy pain study FCL-12-002 (Example 9); format: in vivo, cat
Protocol: This controlled, non-GLP, laboratory study used three treatment groups: Group 1 was dosed with 20-mg grapiprant-containing Formulation […] tablets the night before (about 12 hours) and 30 minutes before surgery; Group 2 was the negative control dosed with empty gelatin capsules; and Group 3 was dosed with two 20-mg grapiprant-containing Formulation […] tablets given 30 minutes before surgery. Ten adult cats were in each group. The cats were acclimated for 7 days. Cats were divided into two sequences of 15 cats each to allow for surgeries over two days. The day of surgery was considered Day 0 for that sequence. One cat from each grapiprant-treated group was removed before surgical procedures were performed. On Day -1/0 for that sequence, all animals were administered with the appropriate test article before onychectomy. All animals received a dose of butorphanol before surgery. Following Day 2 procedures, all animals were transferred to an open feline colony. Study parameters of interest included statistical analysis of recovery, sedation, analgesia scores, and clinical pathology.

[3] = tested on: thermal hyperalgesia induced by intraplantar injection of PGE2; conditions: oral administration; cited from earlier work
[4] = 9-month oral toxicity study in dogs with 4-week recovery (Example 7)
Protocol: Four animals per sex were used in each dose group and two additional animals per sex in the 50 mg/kg dose group for recovery purposes. Clinical signs and food consumption were assessed daily. Bodyweight was recorded weekly. Ophthalmologic examination was performed on Weeks 20 and 38 of the dosing phase and Week 4 of the recovery phase. Electrocardiograms were recorded on Weeks 13, 26, and 38 of the dosing phase and Week 4 of the recovery phase. Hematology, coagulation, and serum chemistry parameters were monitored on Weeks 13, 26, and 39 of the dosing phase and Week 4 or 5 of the recovery phase. Urinalyses were performed on Week 37 of the dosing phase and Week 3 or 4 of the recovery phase. […] At the end of the dosing or recovery period, dogs were euthanized and necropsied. After gross examination, selected organs were weighed, and a comprehensive set of tissues was collected and processed for microscopic examination.

[5] = cats, 20-mg Formulation A34 tablets before onychectomy, vs placebo control

In the case of `CCc1nc2c(C)nc(C)cc2n1-c1ccc(CCNC(=O)NS(=O)(=O)c2ccc(C)cc2)cc1` [grapiprant, N-{2-[4-(2-ethyl-4,6-dimethyl-1H-imidazo[4,5-c]pyridin-1-yl)phenyl]ethyl}-N′-[(4-methylphenyl)sulfonyl]urea], the “control of pain and inflammation of osteoarthritis (PSS and PIS of the CBPI)” value ([1]; 2 mg/kg SID and 5 mg/kg SID doses) was “equally effective in controlling the pain and inflammation of osteoarthritis in dogs”, the “median decrease from baseline PSS score” value ([1]; 2 mg/kg SID) was 48 and the “median decrease from baseline PIS score” value ([1]; 2 mg/kg SID) was 53.25. The “median decrease from baseline PSS score” value ([1]; 4 mg/kg BID) was 44.44, the “median decrease from baseline PIS score” value ([1]; 4 mg/kg BID) was 52.27 and the “median decrease from baseline PSS score” value ([1]; 5 mg/kg SID) was 48.53. The “median decrease from baseline PIS score” value ([1]; 5 mg/kg SID) was 55.27, the “Pain Interference Score (PIS), % change from Day 0” value ([1]; 2 mg/kg SID, Day 7, median) was −27.97% and the “Pain Severity Score (PSS), % change from Day 0” value ([1]; 2 mg/kg SID, Day 7, median) was −24.26%. The “Pain Interference Score (PIS), % change from Day 0” value ([1]; 2 mg/kg SID, Day 14, median) was −33.33%, the “Pain Severity Score (PSS), % change from Day 0” value ([1]; 2 mg/kg SID, Day 14, median) was −32.00% and the “Pain Interference Score (PIS), % change from Day 0” value ([1]; 2 mg/kg SID, Day 21, median) was −47.83%. The “Pain Severity Score (PSS), % change from Day 0” value ([1]; 2 mg/kg SID, Day 21, median) was −35.00%, the “Pain Interference Score (PIS), % change from Day 0” value ([1]; 2 mg/kg SID, Day 28, median) was −53.25% and the “Pain Severity Score (PSS), % change from Day 0” value ([1]; 2 mg/kg SID, Day 28, median) was −48.00%. The “Pain Interference Score (PIS), % change from Day 0” value ([1]; 4 mg/kg BID, Day 7, median) was −28.57%, the “Pain Severity Score (PSS), % change from Day 0” value ([1]; 4 mg/kg BID, Day 7, median) was −17.39% and the “Pain Interference Score (PIS), % change from Day 0” value ([1]; 4 mg/kg BID, Day 14, median) was −35.24%. For the same compound, the “Pain Severity Score (PSS), % change from Day 0” value ([1]; 4 mg/kg BID, Day 14, median) was −28.29%, the “Pain Interference Score (PIS), % change from Day 0” value ([1]; 4 mg/kg BID, Day 21, median) was −42.11% and the “Pain Severity Score (PSS), % change from Day 0” value ([1]; 4 mg/kg BID, Day 21, median) was −38.89%. The “Pain Interference Score (PIS), % change from Day 0” value ([1]; 4 mg/kg BID, Day 28, median) was −52.27%, the “Pain Severity Score (PSS), % change from Day 0” value ([1]; 4 mg/kg BID, Day 28, median) was −44.44% and the “Pain Interference Score (PIS), % change from Day 0” value ([1]; 5 mg/kg SID, Day 7, median) was −26.92%. For the same compound, the “Pain Severity Score (PSS), % change from Day 0” value ([1]; 5 mg/kg SID, Day 7, median) was −22.22%, the “Pain Interference Score (PIS), % change from Day 0” value ([1]; 5 mg/kg SID, Day 14, median) was −40.00% and the “Pain Severity Score (PSS), % change from Day 0” value ([1]; 5 mg/kg SID, Day 14, median) was −30.00%. For the same compound, the “Pain Interference Score (PIS), % change from Day 0” value ([1]; 5 mg/kg SID, Day 21, median) was −53.85%, the “Pain Severity Score (PSS), % change from Day 0” value ([1]; 5 mg/kg SID, Day 21, median) was −44.44% and the “Pain Interference Score (PIS), % change from Day 0” value ([1]; 5 mg/kg SID, Day 28, median) was −55.27%. The “Pain Severity Score (PSS), % change from Day 0” value ([1]; 5 mg/kg SID, Day 28, median) was −48.53%, the “preliminary estimated mean effective canine dose” value ([1]; extrapolated from human PK/PD, protein binding and receptor affinity, confirmed in the field study) was 2 mg/kg SID and the “comparison of dosing regimens” value ([2]; Group 1 (about 12 hours and 30 minutes before surgery) vs Group 3 (two tablets 30 minutes before surgery)) was “dosing the cats with grapiprant the night before surgery was more effective”. The pain interventions ([2]; both groups of grapiprant treated animals) was “fewer pain interventions than placebo control”, the analgesia scores [2, 5] was “decreased analgesia scores (reduced pain)” and the sedation scores [2, 5] was “without an apparent effect on sedation scores”. The “ED50, reduction of thermal hyperalgesia” value [3] was 12.8 mg/kg, the “decrease in mean albumin/globulin (A/G) ratio” value ([4]; 6 mg/kg, Week 39) was −16% and the histopathological finding ([4]; 50 mg/kg) was “mild regeneration of the mucosal epithelium of the ileum in one male”. For the same compound, the “decrease in mean serum albumin vs. control value” ([4]; 50 mg/kg, Weeks 26 and 39) was “up to −14%”, the accumulation ([4]; 1, 6, and 50 mg/kg/day dosing regimen) was “no accumulation of grapiprant was observed” and the “level with no observed adverse effects” value ([4]; Beagle dogs, oral once daily, nine months) was 6 mg/kg. The “individual decrease in albumin vs. pre-study” value ([4]; dose-related trend, 1-50 mg/kg) was “up to −41%”, the “individual decrease in calcium” value ([4]; dose-related trend, 1-50 mg/kg) was “up to −18%” and the “individual decrease in total protein” value ([4]; dose-related trend, 1-50 mg/kg) was “up to −30%”.
